Data published in patent US20240327463A1, “ANTIBACTERIAL PRODUCTS” (priority 2017, published 2024).
Values after ≈ are worked out from the molar mass of the structure shown. Bridge positions count the residues as written; N and C are the ends. Square brackets hold non-standard residues; d marks the D form. Peptide text beside a SMILES is read from it. * marks the point of attachment. ξ: configuration not given here. dNMeF = CN[C@H](Cc1ccccc1)C(=O)O; Ile(3ξ) = CCC(C)[C@H](N)C(=O)O; X2 = O=C(CCCCCN1CNC(=S)NC1)*; X3 = O=C(CCCN1CNC(=S)NC1)*; X4 = O=C(CN1CNC(=S)NC1)*

Columns and labels:
S. aureus ATCC 25923 = assay type: cell-based, Staphylococcus aureus
Procedure: (§1) Bacteria were grown on Mueller Hinton broth (oxoid). All incubations were at 37° C. Dilutions were carried out using Mueller Hinton. […] This process was repeated up to well 11. […] This was repeated three times. […] Results are tabulated in the Examples.

MRSA ATCC 33591 = conditions: for MIC (MRSA): ATCC 33591
Outline: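 Twofold dilutions of DMSO-solubilised peptides (from 512 μg/ml) in Mueller Hinton; 24 h incubation, 37° C; visible growth scored.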

VRE 1008 = assay type: cell-based, Enterococcus faecalis
Procedure: as §1

VRE 1002 = assay type: cell-based, Enterococcus faecalis
Procedure: as §1

VRE 1004 = assay type: cell-based, Enterococcus faecalis
Procedure: as §1

VRE 1001 = assay type: cell-based, Enterococcus faecalis
Procedure: as §1

[1] = system: Staphylococcus saprophyticus ATCC BAA 750; assay type: cell-based; conditions: ATCC BAA 750
Procedure: as §1

[2] = system: Staphylococcus saprophyticus ATCC 15305; assay type: cell-based; conditions: ATCC 15305
Procedure: as §1

[3] = system: Staphylococcus saprophyticus ATCC 49907; assay type: cell-based; conditions: ATCC 49907
Procedure: as §1

[4] = system: Bacillus Subtilis ATCC 6633; assay type: cell-based
Procedure: as §1

SE12228 = assay type: cell-based
Procedure: as §1

SA4299 = assay type: cell-based; conditions: Table 11
Procedure: as §1

[5] = system: Bacillus Cereus ATCC 11788; assay type: cell-based
Procedure: as §1

[6] = system: Staphylococcus saprophyticus ATCC 49453; assay type: cell-based; conditions: ATCC 49453
Procedure: as §1

MRSA 1003 = assay type: cell-based, Staphylococcus aureus
Procedure: as §1

MRSA DM21455 (eye) = assay: microbe, parasite or virus in culture; conditions: DM21455 (eye)
Procedure: (§2) For MIC testing all peptides were dissolved in DMSO (according to the method of L. L. Ling, et al., Nature 2015, 517, 455-459). Bacteria were grown on Mueller Hinton broth (oxoid). All incubations were at 37° C. Dilutions were carried out using Mueller Hinton. 100 μl of autoclaved Mueller Hinton broth was added to wells 2-12 on a 96-well plate. 200 μl of the peptide was added to well one at a concentration of 512 μg/ml. 100 μl of peptide in well one was taken up and pipetted into well two. The mixture was then mixed via pipetting before 100 μl was taken up and pipetted into well three. This process was repeated up to well 11. […] This was repeated three times. The 96-well plates were then incubated for 24 hours. The MIC was determined to be the lowest concentration at which there was no growth visible.

[7] = system: Staphylococcus aureus ATCC 29213; assay: microbe, parasite or virus in culture; conditions: ATCC 29213
Procedure: as §2

MRSA ATCC 700699 = assay: microbe, parasite or virus in culture; conditions: ATCC 700699
Procedure: as §2

VRE ATCC 700802 = assay: microbe, parasite or virus in culture; conditions: ATCC 700802
Procedure: as §2

MRSA DR 42412 (sputum) = assay: microbe, parasite or virus in culture; conditions: DR 42412 (sputum)
Procedure: as §2

VRE ATCC 29212 = assay: microbe, parasite or virus in culture; conditions: ATCC 29212
Procedure: as §2

Structure (SMILES) | MIC against S. aureus ATCC 25923 (S. aureus ATCC 25923) [µg/mL] | MIC (VRE 1008) [µg/mL] | MIC (VRE 1002) [µg/mL] | MIC (VRE 1004) [µg/mL] | MIC (VRE 1001) [µg/mL] | MIC [1] [µg/mL] | MIC [2] [µg/mL] | MIC [3] [µg/mL] | MIC [4] [µg/mL] | MIC (SE12228) [µg/mL] | MIC (SA4299) [µg/mL] | MIC [5] [µg/mL] | MIC [6] [µg/mL] | MIC (MRSA 1003) [µg/mL] | MIC (MRSA DM21455 (eye)) [µg/mL] | MIC [7] [µg/mL] | MIC (MRSA ATCC 700699) [µg/mL] | MIC (VRE ATCC 700802) [µg/mL] | MIC (MRSA DR 42412 (sputum)) [µg/mL] | MIC (VRE ATCC 29212) [µg/mL] | also measured
CC[C@@H](C)[C@@H](NC(=O)[C@@H](CCC(N)=O)NC(=O)[C@H](CO)NC(=O)[C@@H](NC(=O)[C@@H](Cc1ccccc1)NC)[C@@H](C)CC)C(=O)N[C@H](C(=O)N[C@@H](CO)C(=O)N[C@H]1C(=O)N[C@@H](C)C(=O)N[C@@H](CCCCNC(=O)CCCN2CNC(=S)NC2)C(=O)N[C@@H]([C@@H](C)CC)C(=O)O[C@H]1C)[C@@H](C)CC [Compound 23, GABA-thiourea-Lys10-teixobactin] (H-[dNMeF]IS[dQ][dI]IS[dT]AK(X3)I; ester 8-C) | 2 (≈ 1.43 µM) | – | – | – | – | – | – | – | – | – | – | – | – | – | – | – | – | – | – | – | –
CC[C@@H](C)[C@@H](NC(=O)[C@@H](CCC(N)=O)NC(=O)[C@H](CO)NC(=O)[C@@H](NC(=O)[C@@H](Cc1ccccc1)NC)[C@@H](C)CC)C(=O)N[C@H](C(=O)N[C@@H](CO)C(=O)N[C@H]1C(=O)N[C@@H](C)C(=O)N[C@@H](CCCCNC(=O)CN2CNC(=S)NC2)C(=O)N[C@@H]([C@@H](C)CC)C(=O)O[C@H]1C)[C@@H](C)CC [Compound 22, Gly-thiourea-Lys10-teixobactin] (H-[dNMeF]IS[dQ][dI]IS[dT]AK(X4)I; ester 8-C) | 2 (≈ 1.46 µM) | – | – | – | – | – | – | – | – | – | – | – | – | – | – | – | – | – | – | – | –
CCC(C)[C@@H]1NC(=O)[C@H](CCCNC(=N)N)NC(=O)[C@H](NC(=O)[C@H](CO)NC(=O)[C@@H](NC(=O)[C@H](NC(=O)[C@@H](CCC(N)=O)NC(=O)[C@H](CO)NC(=O)[C@@H](NC(=O)[C@@H](Cc2ccccc2)NC)[C@@H](C)CC)[C@H](C)CC)[C@@H](C)CC)[C@H](C)OC(=O)[C@H]([C@@H](C)CC)NC1=O (some centres unmarked) [Compound 34, Arg9-Ile10-teixobactin] (H-[dNMeF]IS[dQ][dI]IS[dT]R[Ile(3ξ)]I; ester 8-C) | – | 1 (≈ 0.777 µM) | 1 (≈ 0.777 µM) | 1 (≈ 0.777 µM) | 1 (≈ 0.777 µM) | <0.0625 | <0.0625 | <0.0625 | 0.125 (≈ 0.0972 µM) | <0.0625 | 1 (≈ 0.777 µM) | 0.5 (≈ 0.389 µM) | <0.0625 | 0.5 (≈ 0.389 µM) | 0.5 (≈ 0.389 µM) | 1 (≈ 0.777 µM) | 1 (≈ 0.777 µM) | 1 (≈ 0.777 µM) | 0.125 (≈ 0.0972 µM) | 1 (≈ 0.777 µM) | MIC (MRSA) (MRSA ATCC 33591): 0.25 µg/mL (≈ 0.194 µM)
CC[C@@H](C)[C@@H](NC(=O)[C@@H](CCC(N)=O)NC(=O)[C@H](CO)NC(=O)[C@@H](NC(=O)[C@@H](Cc1ccccc1)NC)[C@@H](C)CC)C(=O)N[C@H](C(=O)N[C@@H](CO)C(=O)N[C@H]1C(=O)N[C@@H](C)C(=O)N[C@@H](CCCCNC(=O)CCCCCN2CNC(=S)NC2)C(=O)N[C@@H]([C@@H](C)CC)C(=O)O[C@H]1C)[C@@H](C)CC [Compound 24, Ahx-thiourea-Lys10-teixobactin] (H-[dNMeF]IS[dQ][dI]IS[dT]AK(X2)I; ester 8-C) | 2 (≈ 1.4 µM) | – | – | – | – | – | – | – | – | – | – | – | – | – | – | – | – | – | – | – | –
CC[C@@H](C)[C@@H](NC(=O)[C@@H](CCCNC(=N)N)NC(=O)[C@H](CCCNC(=N)N)NC(=O)[C@@H](NC(=O)[C@@H](Cc1ccccc1)NC)[C@@H](C)CC)C(=O)N[C@H](C(=O)N[C@@H](CO)C(=O)N[C@H]1C(=O)N[C@@H](C)C(=O)N[C@@H](CC(C)C)C(=O)N[C@@H]([C@@H](C)CC)C(=O)O[C@H]1C)[C@@H](C)CC [Compound 28, Arg3-D-Arg4-Leu10-teixobactin] (H-[dNMeF]IR[dR][dI]IS[dT]ALI; ester 8-C) | – | 0.5 (≈ 0.385 µM) | 1 (≈ 0.77 µM) | 0.5 (≈ 0.385 µM) | 1 (≈ 0.77 µM) | <0.0625 | <0.0625 | <0.0625 | <0.0625 | <0.0625 | 0.25 (≈ 0.193 µM) | 1 (≈ 0.77 µM) | <0.0625 | 1 (≈ 0.77 µM) | 0.5 (≈ 0.385 µM) | 0.25 (≈ 0.193 µM) | 0.5 (≈ 0.385 µM) | 2 (≈ 1.54 µM) | 0.25 (≈ 0.193 µM) | 1 (≈ 0.77 µM) | MIC against MRSA ATCC 33591 (MRSA ATCC 33591): 0.25 µg/mL (≈ 0.193 µM)
CC[C@@H](C)[C@@H](NC(=O)[C@@H](CCC(N)=O)NC(=O)[C@H](CO)NC(=O)[C@@H](NC(=O)[C@@H](Cc1ccccc1)NC)[C@@H](C)CC)C(=O)N[C@H](C(=O)N[C@@H](CO)C(=O)N[C@H]1C(=O)N[C@@H](CCCNC(=N)N)C(=O)N[C@@H](CC(C)C)C(=O)N[C@@H]([C@@H](C)CC)C(=O)O[C@H]1C)[C@@H](C)CC [Compound 27, Arg9-Leu10-teixobactin] (H-[dNMeF]IS[dQ][dI]IS[dT]RLI; ester 8-C) | – | 0.25 (≈ 0.194 µM) | 1 (≈ 0.777 µM) | 0.25 (≈ 0.194 µM) | 0.5 (≈ 0.389 µM) | <0.0625 | <0.0625 | <0.0625 | <0.0625 | <0.0625 | 0.25 (≈ 0.194 µM) | 0.25 (≈ 0.194 µM) | <0.0625 | 0.25 (≈ 0.194 µM) | 0.25 (≈ 0.194 µM) | 0.5 (≈ 0.389 µM) | 0.5 (≈ 0.389 µM) | 0.5 (≈ 0.389 µM) | <0.0625 | 1 (≈ 0.777 µM) | MIC (MRSA) (MRSA ATCC 33591): 0.125 µg/mL (≈ 0.0972 µM)
CC[C@@H](C)[C@@H](NC(=O)[C@@H](CCCNC(=N)N)NC(=O)[C@H](CO)NC(=O)[C@@H](NC(=O)[C@@H](Cc1ccccc1)NC)[C@@H](C)CC)C(=O)N[C@H](C(=O)N[C@@H](CO)C(=O)N[C@H]1C(=O)N[C@@H](CCCNC(=N)N)C(=O)N[C@@H](CC(C)C)C(=O)N[C@@H]([C@@H](C)CC)C(=O)O[C@H]1C)[C@@H](C)CC [Compound 30, D-Arg4-Arg9-Leu10-teixobactin] (H-[dNMeF]IS[dR][dI]IS[dT]RLI; ester 8-C) | – | 1 (≈ 0.761 µM) | 1 (≈ 0.761 µM) | 1 (≈ 0.761 µM) | 1 (≈ 0.761 µM) | <0.0625 | <0.0625 | <0.0625 | <0.0625 | <0.0625 | 0.5 (≈ 0.38 µM) | 1 (≈ 0.761 µM) | <0.0625 | 0.5 (≈ 0.38 µM) | 1 (≈ 0.761 µM) | 1 (≈ 0.761 µM) | 1 (≈ 0.761 µM) | 1 (≈ 0.761 µM) | 1 (≈ 0.761 µM) | 1 (≈ 0.761 µM) | MIC against MRSA ATCC 33591 (MRSA ATCC 33591): 1 µg/mL (≈ 0.761 µM)
